According to PubChem BioAssay (NCI):
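Test compounds were applied to cells in 96-well plates for 48 hours at 5 doses. GI50 is the concentration that inhibits growth by half. TGI denotes the concentration required for complete inhibition of growth.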

Assays:
Test in all cases: DTP human tumour cell line panel, 48 h
A549 NSCLC = tested on: A549 NSCLC
MOLT-4 leukemia = tested on: MOLT-4 leukemia
HL-60(TB) leukemia = tested on: HL-60(TB) leukemia
NCI/ADR-RES ovarian = tested on: NCI/ADR-RES ovarian
RPMI-8226 leukemia = tested on: RPMI-8226 leukemia
HOP-92 NSCLC = tested on: HOP-92 NSCLC
SF-539 CNS = tested on: SF-539 CNS
U251 CNS = tested on: U251 CNS
SN12C renal = tested on: SN12C renal
KM12 colon = tested on: KM12 colon
MALME-3M melanoma = tested on: MALME-3M melanoma
CCRF-CEM leukemia = tested on: CCRF-CEM leukemia
SF-268 CNS = tested on: SF-268 CNS
SK-MEL-2 melanoma = tested on: SK-MEL-2 melanoma
OVCAR-8 ovarian = tested on: OVCAR-8 ovarian
OVCAR-5 ovarian = tested on: OVCAR-5 ovarian
ACHN renal = tested on: ACHN renal
SK-MEL-5 melanoma = tested on: SK-MEL-5 melanoma
SNB-75 CNS = tested on: SNB-75 CNS
HOP-62 NSCLC = tested on: HOP-62 NSCLC
786-0 renal = tested on: 786-0 renal
PC-3 prostate = tested on: PC-3 prostate
TK-10 renal = tested on: TK-10 renal
NCI-H23 lung = tested on: NCI-H23 lung
EKVX NSCLC = tested on: EKVX NSCLC
OVCAR-4 ovarian = tested on: OVCAR-4 ovarian
SNB-19 CNS = tested on: SNB-19 CNS
BT-549 breast = tested on: BT-549 breast
COLO 205 colon = tested on: COLO 205 colon
SR leukemia = tested on: SR leukemia
HT29 colon = tested on: HT29 colon
HCT-116 colon = tested on: HCT-116 colon
SK-OV-3 ovarian = tested on: SK-OV-3 ovarian
UO-31 renal = tested on: UO-31 renal
OVCAR-3 ovarian = tested on: OVCAR-3 ovarian
K-562 leukemia = tested on: K-562 leukemia
MDA-MB-435 = tested on: MDA-MB-435
UACC-62 melanoma = tested on: UACC-62 melanoma
HCT-15 colon = tested on: HCT-15 colon
HCC-2998 colon = tested on: HCC-2998 colon
NCI-H226 lung = tested on: NCI-H226 lung
A498 renal = tested on: A498 renal
SK-MEL-28 melanoma = tested on: SK-MEL-28 melanoma
MDA-MB-468 breast = tested on: MDA-MB-468 breast
MCF7 breast = tested on: MCF7 breast
M14 melanoma = tested on: M14 melanoma
CAKI-1 renal = tested on: CAKI-1 renal
UACC-257 melanoma = tested on: UACC-257 melanoma
DU-145 prostate = tested on: DU-145 prostate
NCI-H522 lung = tested on: NCI-H522 lung
NCI-H460 lung = tested on: NCI-H460 lung
IGROV1 ovarian = tested on: IGROV1 ovarian
SF-295 CNS = tested on: SF-295 CNS
T-47D breast = tested on: T-47D breast
RXF 393 renal = tested on: RXF 393 renal

## COc1ccc(-c2ccnc(SCc3cc4cc(OC)ccc4[nH]c3=O)n2)cc1
A549 NSCLC
  GI50: 10.1 µM
  TGI: > 100 µM
MOLT-4 leukemia
  GI50: 3.26 µM
  TGI: > 100 µM
HL-60(TB) leukemia
  GI50: 2.34 µM
  TGI: > 100 µM
NCI/ADR-RES ovarian
  GI50: 4.06 µM
  TGI: > 100 µM
RPMI-8226 leukemia
  GI50: 5.05 µM
  TGI: > 100 µM
HOP-92 NSCLC
  GI50: 7.95 µM
  TGI: > 100 µM
SF-539 CNS
  GI50: 6.67 µM
  TGI: > 100 µM
U251 CNS
  GI50: 12.4 µM
  TGI: > 100 µM
SN12C renal
  GI50: 7.41 µM
  TGI: > 100 µM
KM12 colon
  GI50: 9.43 µM
  TGI: > 100 µM
MALME-3M melanoma
  GI50: 17 µM
  TGI: > 100 µM
CCRF-CEM leukemia
  GI50: 6.66 µM
  TGI: > 100 µM
SF-268 CNS
  GI50: 17.7 µM
  TGI: > 100 µM
SK-MEL-2 melanoma
  GI50: 6.27 µM
  TGI: > 100 µM
OVCAR-8 ovarian
  GI50: 22.8 µM
  TGI: > 100 µM
OVCAR-5 ovarian
  GI50: 23.6 µM
  TGI: > 100 µM
ACHN renal
  GI50: 20.6 µM
  TGI: > 100 µM
SK-MEL-5 melanoma
  GI50: 4.95 µM
  TGI: 38 µM
SNB-75 CNS
  GI50: 2.46 µM
  TGI: 71.4 µM
HOP-62 NSCLC
  GI50: 10.9 µM
  TGI: 97.9 µM
786-0 renal
  GI50: 26 µM
  TGI: > 100 µM
PC-3 prostate
  GI50: 6.96 µM
  TGI: > 100 µM
TK-10 renal
  GI50: 26.1 µM
  TGI: > 100 µM
NCI-H23 lung
  GI50: 19 µM
  TGI: > 100 µM
EKVX NSCLC
  GI50: 4.16 µM
  TGI: > 100 µM
OVCAR-4 ovarian
  GI50: 17.6 µM
  TGI: > 100 µM
SNB-19 CNS
  GI50: 35.2 µM
  TGI: > 100 µM
BT-549 breast
  GI50: 3.4 µM
  TGI: > 100 µM
COLO 205 colon
  GI50: 17.3 µM
  TGI: > 100 µM
SR leukemia
  GI50: 2.95 µM
  TGI: > 100 µM
HT29 colon
  GI50: 5.38 µM
  TGI: > 100 µM
HCT-116 colon
  GI50: 3.64 µM
  TGI: > 100 µM
SK-OV-3 ovarian
  GI50: 56.3 µM
  TGI: > 100 µM
UO-31 renal
  GI50: 8.94 µM
  TGI: > 100 µM
OVCAR-3 ovarian
  GI50: 17.9 µM
  TGI: > 100 µM
K-562 leukemia
  GI50: 2.55 µM
  TGI: > 100 µM
MDA-MB-435
  GI50: 3.17 µM
  TGI: > 100 µM
UACC-62 melanoma
  GI50: 4.62 µM
  TGI: > 100 µM
HCT-15 colon
  GI50: 4.33 µM
  TGI: > 100 µM
HCC-2998 colon
  GI50: 31.4 µM
  TGI: > 100 µM
NCI-H226 lung
  GI50: 8.14 µM
  TGI: > 100 µM
A498 renal
  GI50: > 100 µM
  TGI: > 100 µM
SK-MEL-28 melanoma
  GI50: 14.1 µM
  TGI: > 100 µM
MDA-MB-468 breast
  GI50: 2.09 µM
  TGI: 6.16 µM
MCF7 breast
  GI50: 4.65 µM
  TGI: > 100 µM
M14 melanoma
  GI50: 7.31 µM
  TGI: > 100 µM
CAKI-1 renal
  GI50: 6.11 µM
  TGI: > 100 µM
UACC-257 melanoma
  GI50: 74.5 µM
  TGI: > 100 µM
DU-145 prostate
  GI50: 34.9 µM
  TGI: > 100 µM
NCI-H522 lung
  GI50: 7.82 µM
  TGI: > 100 µM
NCI-H460 lung
  GI50: 7.41 µM
  TGI: > 100 µM
IGROV1 ovarian
  GI50: 5.66 µM
  TGI: > 100 µM
SF-295 CNS
  GI50: 7.09 µM
  TGI: > 100 µM
T-47D breast
  GI50: 4.97 µM
  TGI: > 100 µM
RXF 393 renal
  GI50: 4.42 µM
  TGI: > 100 µM
